# Where two headings read alike, the source gives them in different places.
# Tested on: HCV proteins in Rep5.1 cells (replicon cell line)
# Experiment: Inhibitory activity of HCV: cell-based ELISA in replicon cell line Rep5.1 (decrease of HCV proteins)
# Set-up: species or system hepatitis C virus
# Method in brief: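 HCV protein loss was quantified by ELISA on methanol/acetone-fixed cells 72 h after drug addition, probing with selected HCV-positive human plasma, and IC50 was defined as 50% reduction relative to untreated wells. The cells were Rep5.1 replicon cells cultured in DMEM-10 with 500 μg/ml G418, plated at 5000 per well and dosed with serial dilutions after 4 h attachment.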
# [1] = Hepatitis C virus, 72 h, Rep5.1 cells, 72 hours with drug, concentration at which 50% of HCV proteins was decreased, Table 2, read-out: IC50
# [2] = Hepatitis C virus, 72 h, Rep5.1 cells, 72 hours with drug, decrease of HCV proteins measured by HCV antibody, Table 1, read-out: Level (IC50 values classified)
# [3] = Rep5.1 cells, 72 hours with drug, concentration at which 50% of HCV proteins was decreased, Table 2, read-out: IC50
smiles,measurement,setting,value
"CC1=C(C(=O)OCc2ccccc2)C(CO)NC(=S)N1 (stereo not drawn) [8″, 4-hydroxymethyl-6-methyl-2-thioxo-1,2,3,4-tetrahydro-pyrimidine-5-carboxylic acid benzyl ester]",IC50,[1],> 100 µM
same,IC50,[2],> 20 µM
"CC1=C(C(=O)OCc2cc(C)ccc2C)CNC(=S)N1 [Compound 149, 6-methyl-2-thioxo-1,2,3,4-tetrahydro-pyrimidine-5-carboxylic acid 2,5-dimethyl-benzyl ester]",IC50,[1],< 0.4 µM
same,IC50,[2],< 1 µM
"CC1=C(C(=O)OCCc2ccc(F)c(C)c2)C(CO)NC(=S)N1 (stereo not drawn) [66″, 4-hydroxymethyl-6-methyl-2-thioxo-1,2,3,4-tetrahydro-pyrimidine-5-carboxylic acid 2-(4-fluoro-3-methyl-phenyl)-ethyl ester]",IC50,[1],0.7 µM
same,IC50,[2],< 1 µM
"O=C(OCCc1ccsc1)C1=C(CF)NC(=S)NC1 [57′, 6-fluoromethyl-2-thioxo-1,2,3,4-tetrahydro-pyrimidine-5-carboxylic acid 2-thiophen-3-yl-ethyl ester]",IC50,[1],10 µM
same,IC50,[2],1 to 10 µM
"CC1=C(C(=O)OCCc2cc(F)cc(F)c2)C(CO)NC(=S)N1 (stereo not drawn) [57″, 4-hydroxymethyl-6-methyl-2-thioxo-1,2,3,4-tetrahydro-pyrimidine-5-carboxylic acid 2-(3,5-difluoro-phenyl)-ethyl ester]",IC50,[1],6.4 µM
same,IC50,[2],1 to 10 µM
"CC1=C(C(=O)OCc2ccsc2)CNC(=S)N1 [Compound 139, 6-methyl-2-thioxo-1,2,3,4-tetrahydro-pyrimidine-5-carboxylic acid thiophen-3-ylmethyl ester]",IC50,[1],7 µM
same,IC50,[2],1 to 10 µM
"CC1=C(C(=O)OCc2ccc(F)cc2F)CNC(=S)N1 [Compound 69, 6-methyl-2-thioxo-1,2,3,4-tetrahydro-pyrimidine-5-carboxylic acid 2,4-difluoro-benzyl ester]",IC50,[1],1.2 µM
same,IC50,[2],1 to 10 µM
"CC1=C(C(=O)OCCc2nc3ccccc3o2)CNC(=S)N1 [Compound 265, 6-methyl-2-thioxo-1,2,3,4-tetrahydro-pyrimidine-5-carboxylic acid 2-benzoxazol-2-yl-ethyl ester]",IC50,[1],6 µM
same,IC50,[2],1 to 10 µM
"COc1cscc1CCOC(=O)C1=C(C)NC(=S)NC1 [40′, 6-methyl-2-thioxo-1,2,3,4-tetrahydro-pyrimidine-5-carboxylic acid 2-(4-methoxy-thiophen-3-yl)-ethyl ester]",IC50,[1],0.6 µM
same,IC50,[2],< 1 µM
"CC1=C(C(=O)OCCc2ccc(C)cc2)C(CO)NC(=S)N1 (stereo not drawn) [63″, 4-hydroxymethyl-6-methyl-2-thioxo-1,2,3,4-tetrahydro-pyrimidine-5-carboxylic acid 2-p-tolyl-ethyl ester]",IC50,[1],1.6 µM
same,IC50,[2],1 to 10 µM
"C#CCCCOC(=O)C1=C(C)NC(=S)NC1 [Compound 130, 6-methyl-2-thioxo-1,2,3,4-tetrahydro-pyrimidine-5-carboxylic acid pent-4-inyl ester]",IC50,[3],35 µM
"CC1=C(C(=O)OCc2ccccc2)C(C(F)(F)F)NC(=S)N1 (stereo not drawn) [Compound 234, 6-methyl-2-thioxo-4-trifluoromethyl-1,2,3,4-tetrahydro-pyrimidine-5-carboxylic acid benzyl ester]",IC50,[1],100 µM
same,IC50,[2],> 20 µM
"CC1=C(C(=O)OC2CCc3c(Cl)sc(Cl)c32)CNC(=S)N1 (stereo not drawn) [12′, 6-methyl-2-thioxo-1,2,3,4-tetrahydro-pyrimidine-5-carboxylic acid 1,3-dichloro-5,6-dihydro-4H-cyclopenta[c]thiophen-4-yl ester]",IC50,[1],< 0.4 µM
same,IC50,[2],< 1 µM
"COc1ccc(COC(=O)C2=C(C)NC(=S)NC2)c(F)c1 [Compound 177, 6-methyl-2-thioxo-1,2,3,4-tetrahydro-pyrimidine-5-carboxylic acid 2-fluoro-4-methoxy-benzyl ester]",IC50,[1],2.5 µM
same,IC50,[2],1 to 10 µM
"CC1=C(C(=O)OCCc2cccc(Cl)c2)C(COC(=O)OCCS(C)(=O)=O)NC(=S)N1 (stereo not drawn) [84″, 4-(2-methanesulfonyl-ethoxycarbonyloxymethyl)-6-methyl-2-thioxo-1,2,3,4-tetrahydro-pyrimidine-5-carboxylic acid 2-(3-chloro-phenyl)-ethyl ester]",IC50,[1],0.9 µM
same,IC50,[2],< 1 µM
"CC1=C(C(=O)OCC#Cc2cccs2)CNC(=S)N1 [Compound 239, 6-methyl-2-thioxo-1,2,3,4-tetrahydro-pyrimidine-5-carboxylic acid 3-thiophen-2-yl-prop-2-inyl ester]",IC50,[3],< 0.4 µM
"COc1ccc(COC(=O)C2=C(C)NC(=S)NC2CF)cc1Cl (stereo not drawn) [82′, 4-fluoromethyl-6-methyl-2-thioxo-1,2,3,4-tetrahydro-pyrimidine-5-carboxylic acid 3-chloro-4-methoxy-benzyl ester]",IC50,[1],2.5 µM
same,IC50,[2],1 to 10 µM
"CCN(CCOC(=O)C1=C(C)NC(=S)NC1)c1cccc(C)c1 [Compound 59, 6-methyl-2-thioxo-1,2,3,4-tetrahydro-pyrimidine-5-carboxylic acid 2-(ethyl-m-tolyl-amino)-ethyl ester]",IC50,[1],3 µM
same,IC50,[2],1 to 10 µM
"CC1=C(C(=O)OCCc2cccc(C)c2)CNC(=S)N1 [Compound 172, 6-methyl-2-thioxo-1,2,3,4-tetrahydro-pyrimidine-5-carboxylic acid 2-m-tolyl-ethyl ester]",IC50,[1],< 0.4 µM
same,IC50,[2],< 1 µM
"CC1=C(C(=O)OCC#Cc2ccsc2)CNC(=S)N1 [Compound 240, 6-methyl-2-thioxo-1,2,3,4-tetrahydro-pyrimidine-5-carboxylic acid 3-thiophen-3-yl-prop-2-inyl ester]",IC50,[3],< 0.4 µM
"CC1=C(C(=O)OCc2ccccn2)CNC(=S)N1 [Compound 154, 6-methyl-2-thioxo-1,2,3,4-tetrahydro-pyrimidine-5-carboxylic acid pyridin-2-ylmethyl ester]",IC50,[1],> 100 µM
same,IC50,[2],> 20 µM
"CC1=C(C(=O)OCCCc2ccc(F)cc2)C(CF)NC(=S)N1 (stereo not drawn) [56′, 4-fluoromethyl-6-methyl-2-thioxo-1,2,3,4-tetrahydro-pyrimidine-5-carboxylic acid 3-(4-fluorophenyl)-propyl ester]",IC50,[1],2.4 µM
same,IC50,[2],1 to 10 µM
"COC1=C(C(=O)OCc2ccccc2)CNC(=S)N1 [Compound 63, 6-methoxy-2-thioxo-1,2,3,4-tetrahydro-pyrimidine-5-carboxylic acid benzyl ester]",IC50,[1],> 100 µM
same,IC50,[2],> 20 µM
"COc1ccc(Cl)cc1COC(=O)C1=C(C)NC(=S)NC1CF (stereo not drawn) [81′, 4-fluoromethyl-6-methyl-2-thioxo-1,2,3,4-tetrahydro-pyrimidine-5-carboxylic acid 5-chloro-2-methoxy-benzyl ester]",IC50,[3],2.4 µM
"CC1=C(C(=O)OCCCc2ccc(C(F)(F)F)cc2)CNC(=S)N1 [Compound 107, 6-methyl-2-thioxo-1,2,3,4-tetrahydro-pyrimidine-5-carboxylic acid 3-(4-trifluoromethyl-phenyl)-propyl ester]",IC50,[1],< 0.4 µM
same,IC50,[2],< 1 µM
"CC1=C(C(=O)OCCc2ccsc2)[C@@H](CF)NC(=S)N1 [25′, (S)-4-fluoromethyl-6-methyl-2-thioxo-1,2,3,4-tetrahydro-pyrimidine-5-carboxylic acid 2-thiophen-3-yl-ethyl ester]",IC50,[1],4.9 µM
same,IC50,[2],1 to 10 µM
"CC1=C(C(=O)SCCc2ccccc2)C(CO)NC(=S)N1 (stereo not drawn) [62″, 4-hydroxymethyl-6-methyl-2-thioxo-1,2,3,4-tetrahydro-pyrimidine-5-carbothioic acid S-phenethyl ester]",IC50,[1],> 100 µM
same,IC50,[2],> 20 µM
"CC1=C(C(=O)OCc2ccc(Cl)cc2)CNC(=S)N1 [Compound 43, 6-methyl-2-thioxo-1,2,3,4-tetrahydro-pyrimidine-5-carboxylic acid 4-chloro-benzyl ester]",IC50,[1],< 0.4 µM
same,IC50,[2],< 1 µM
"CC1=C(C(=O)OCc2cc(F)cc(F)c2)C(CF)NC(=S)N1 (stereo not drawn) [69′, 4-fluoromethyl-6-methyl-2-thioxo-1,2,3,4-tetrahydro-pyrimidine-5-carboxylic acid 3,5-difluoro-benzyl ester]",IC50,[1],3 µM
same,IC50,[2],1 to 10 µM
"CCOCC#CCOC(=O)C1=C(C)NC(=S)NC1 [Compound 236, 6-methyl-2-thioxo-1,2,3,4-tetrahydro-pyrimidine-5-carboxylic acid 4-ethoxy-but-2-inyl ester]",IC50,[3],14 µM
"CC1=C(C(=O)OCc2ccc(SC(F)(F)F)cc2)CNC(=S)N1 [Compound 199, 6-methyl-2-thioxo-1,2,3,4-tetrahydro-pyrimidine-5-carboxylic acid 4-trifluoromethylsulfanyl-benzyl ester]",IC50,[1],< 0.4 µM
same,IC50,[2],< 1 µM
"CC1=C(C(=O)OCC2=CCC3CC2C3(C)C)CNC(=S)N1 (stereo not drawn) [Compound 97, 6-methyl-2-thioxo-1,2,3,4-tetrahydro-pyrimidine-5-carboxylic acid 6,6-dimethyl-bicyclo[3.1.1]hept-2-en-2-ylmethyl ester]",IC50,"Hepatitis C virus, 72 h",< 0.4 µM
same,IC50,"Hepatitis C virus, 72 h, read-out: Level (IC50 values classified)",< 1 µM
"CC1=C(C(=O)OCc2cc(C)cc(C)c2)CNC(=S)N1 [Compound 82, 6-methyl-2-thioxo-1,2,3,4-tetrahydro-pyrimidine-5-carboxylic acid 3,5-dimethyl-benzyl ester]",IC50,[1],0.3 µM
same,IC50,[2],< 1 µM
"CC1=C(C(=O)OCc2ccc([N+](=O)[O-])c(C)c2)CNC(=S)N1 [Compound 135, 6-methyl-2-thioxo-1,2,3,4-tetrahydro-pyrimidine-5-carboxylic acid 3-methyl-4-nitro-benzyl ester]",IC50,[1],0.9 µM
same,IC50,[2],< 1 µM
